Results from patent publication US8951988B2, “Azidothymidine quinoline conjugated compound, preparation method therefor and application thereof in anti-hepatoma therapy” (Huazhong University of Science and Technology, priority 2012, dated 2015).
Where “and” joins values, the source holds several entries; their conditions need not be identical. Equal values may be shown once.

Columns and labels:
[1] = system: normal human liver cells HL-7702; assay: MTT cell viability assay, HL-7702; conditions: MTT after 72 hours
Description: (§1) Cell culture: cancer cell lines HepG2 and Hep3B are obtained from ATCC (VA, USA), Human liver cells HL-7702 and murine liver cancer cells H22 are obtained from Shanghai Institute of Life Science Cell Culture Center (Shanghai, China). All the cells are maintained in high glucose DMEM or RPMI-1640 medium (Invitrogen, GA, USA) supplemented with 10% heat-inactivated fetal bovine serum (FBS), 25 mM HEPES, 2 mM L-glutamine, 0.1 mM nonessential amino acids, 1.0 mM sodium pyruvate, 50 U/mL penicillin, and 50 ug/ml streptomycin at 37° C. and 5% CO2.
(§2) Methods of cell viability assay: liver cells are seeded on 96-well plates, AZT-QX, Zidovudine, quinoline piperazine derivatives and doxorubicin are added in respectively, the concentration thereof are from 1 nM to […]. After 72 hours, an MTT assay is carried out to determine the cell viability [See method in: Zhou, et al. Chem. Res. Toxicol. 2008, 21, 732-738.].
(§3) Selective biological activity of AZT-QX is assessed using cell viability assays MTT on human liver carcinoma cells with hepatitis B Hep3B, hepatoblastoma cell line HepG2 and normal human liver cells HL-7702 (FIG. 3).
(§4) FIG. 3 illustrates determined cell viability of Hep3B hepatoma cells with hepatitis B, a HepG2 hepatoblastoma cell line and HL-7702 normal […] treated with AZT-QX (FIG. 3a), doxorubicin (FIG. 3b), Pip-QX (FIG. 3c), and Zidovudine (FIG. 3d).

[2] = system: human liver carcinoma cells with hepatitis B Hep3B; assay: MTT cell viability assay, Hep3B; assay type: cell-based
Description: as §1, §2, §3, §4

[3] = system: hepatoma cells with hepatitis B; assay: anti-BrdU fluorescence assay of nucleic acid synthesis, hepatoma cells; assay type: cell-based
From the text: (§5) The anti-BrdU fluorescence assay is used to determine the nucleic acid synthesis in cells (FIG. 4).
(§6) FIG. 4 illustrates fluorescence images of an anti-BrdU assay of nucleic acid synthesis in cells. As shown in the figure, the green fluorescence illustrates the nucleic acid synthesis in cells, and the blue fluorescence illustrates the nuclear staining.

[4] = system: normal liver cells HL-7702; assay: anti-BrdU fluorescence assay of nucleic acid synthesis, normal liver cells; assay type: cell-based, human
From the text: as §5, §6

[5] = body weight of mice in the H22 liver tumor model; conditions: individual mice, 50 μM 100 μl on day 1 and day 7, in g (unit assumed)
From the text: Animal groups and drug administration: mice are divided into 3 groups once tumors reach an average size of 8.8×8.8 mm.

H22 liver cancer cells = assay: subcutaneous H22 liver tumor model in mice, tumor size and volume; assay type: in vivo, BALB/c mice; conditions: for volume: individual mice, 50 μM 100 μl on day 1 and day 7
Description: The liver cancer tumor models are established by subcutaneously injecting H22 hepatoma cells. […] The further statistical analysis (see FIG. 6) confirms that as compared with the other two, AZT-QX has greater effectiveness p<0.01, and at a low dosage (0.13 mg/kg at a time, twice).
FIG. 6 illustrates the average growth of tumors in mice after administration and tumors in mice after 12 days, in which FIG. 6a is a figure of the average growth of tumors in mice; FIG. 6b is contrast of tumors in mice 12 days after different drug treatments. The control is a blank contrast, AZT is Zidovudine, AZT-QX is application of the compound of the invention.

[6] = system: hepatoblastoma cell line HepG2; assay: MTT cell viability assay, HepG2; assay type: cell-based, human; conditions: MTT after 72 hours
Description: as §1, §2, §3, §4

SMILES	nucleic acid synthesis in hepatoma cells (green fluorescence) [3]	BW ([5]; Day 1)	BW ([5]; Day 2)	BW ([5]; Day 3)	BW ([5]; Day 4)	BW ([5]; Day 5)	BW ([5]; Day 6)	BW ([5]; Day 7)	BW ([5]; Day 8)	BW ([5]; Day 9)	BW ([5]; Day 10)	BW ([5]; Day 11)	BW ([5]; Day 12)	volume (H22 liver cancer cells; Day 1, in mm³ (unit assumed))	volume (H22 liver cancer cells; Day 3, in mm³ (unit assumed))	volume (H22 liver cancer cells; Day 4, in mm³ (unit assumed))	volume (H22 liver cancer cells; Day 5, in mm³ (unit assumed))	volume (H22 liver cancer cells; Day 6, in mm³ (unit assumed))	volume (H22 liver cancer cells; Day 7, in mm³ (unit assumed))	toxicity to normal liver cells HL-7702 (in words) [1]	also measured
Cc1cn([C@H]2C[C@H](n3cc(CNC(=O)CCCCCOc4ccc5c(c4)-c4nc6ccccc6nc4[C@@H]4C(C)(C)CCC[C@]54C)nn3)[C@@H](CO)O2)c(=O)[nH]c1=O [AZT-QX, N-((1-(2-(hydroxymethyl)-5-(5-methyl-2,4-dioxo-3,4-dihydro-pyrimidin-1(2H)-yl)-tetrahydrofuran-3-yl)-1H-1,2,3-triazol-4-yl)methyl)-6-(4b,8,8-trimethyl-4-b,5,6,7,8,8a-hexahydrodibenzo[a,c]phenazin-2-yloxy)hexanamide]	effectively inhibits green fluorescence in hepatoma cells	30.7 and 35.4 and 26.9	31.7 and 36.3 and 27.7	32 and 36 and 27.6	32.5 and 37.1 and 28	32.4 and 32.9 and 28.2	32.2 and 37 and 28.1	32 and 36.3 and 27.9	33.2 and 36.6 and 28.7	33.5 and 36.6 and 28.8	34.1 and 36.7 and 28.7	34.5 and 36.8 and 29	35.8 and 37.9 and 29.5	256 and 288 and 500	500 and 405 and 288	500 and 364.5 and 405	665.5 and 364.5 and 445.5	936 and 405 and 550	907.5 and 500 and 550	–	toxicity to human normal liver cells HL-7702 (in words) ([1]; at 200 μM): no significant toxicity; activity in combination with methotrexate ([2]; Hep3B cells, methotrexate added): additive effect; Hep3B cells killed ([2]; at 20 μM, MTT after 72 hours): 80%; activity after selective inhibition of thymidine kinase by siRNA ([2]; hepatoma cells with hepatitis B, thymidine kinase siRNA): decreased; nucleic acid synthesis in normal liver cells HL-7702 [4]: does not affect the nucleic acid synthesis; volume (H22 liver cancer cells; Day 2): 364.5 and 288 (2×); volume (H22 liver cancer cells; Day 8, in mm³ (unit assumed)): 1080 and 500 and 600; volume (H22 liver cancer cells; Day 9, in mm³ (unit assumed)): 1080 and 665.5 and 666; volume (H22 liver cancer cells; Day 10, in mm³ (unit assumed)): 1080 and 786.5 and 726; volume (H22 liver cancer cells; Day 11, in mm³ (unit assumed)): 1267.5 and 847 and 726; volume (H22 liver cancer cells; Day 12, in mm³ (unit assumed)): 1267.5 and 1008 and 726; average tumor growth after 12 days (in words) (H22 liver cancer cells; injected intratumorally on day 1 and day 7, 100 μL): inhibits tumor growth
Cc1cn([C@H]2C[C@H](N=[N+]=[N-])[C@@H](CO)O2)c(=O)[nH]c1=O [Zidovudine]	no effect in inhibiting nucleic acid synthesis	26.9 and 29.9 and 31.9	26.8 and 31.5 and 32	26.8 and 31.5 and 31.8	27.2 and 31.4 and 33	27 and 31.3 and 32.7	27.4 and 31.3 and 33.8	26.9 and 31.5 and 33.5	26.6 and 32.7 and 34.1	27 and 33.3 and 34.2	27 and 34.5 and 34.4	27.7 and 36.6 and 35.1	28.8 and 37.4 and 35.9	220.5 and 364.5 and 405	320 and 665.5 and 600	650 and 726 and 786.5	486 and 936 and 786.5	1028.5 and 1183 and 1470	1149.5 and 1687.5 and 1568	no significant toxicity	toxicity to / killing of HepG2 cells (in words) [6]: no significant toxicity; toxicity to / killing of Hep3B cells (in words) ([2]; MTT after 72 hours): no significant toxicity; volume (H22 liver cancer cells; Day 2, in mm³ (unit assumed)): 245 and 550 and 405; volume (H22 liver cancer cells; Day 8, in mm³ (unit assumed)): 1368 and 3402 and 2560; volume (H22 liver cancer cells; Day 9, in mm³ (unit assumed)): 1368 and 3610 and 3240; volume (H22 liver cancer cells; Day 10, in mm³ (unit assumed)): 1368 and 3790.5 and 4851; volume (H22 liver cancer cells; Day 11, in mm³ (unit assumed)): 1440 and 4400 and 5071.5; volume (H22 liver cancer cells; Day 12, in mm³ (unit assumed)): 1960 and 5292 and 4851
COc1cccc2c1C(=O)c1c(O)c3c(c(O)c1C2=O)C[C@@](O)(C(=O)CO)C[C@@H]3O[C@H]1C[C@H](N)[C@H](O)[C@H](C)O1 [doxorubicin]	–	–	–	–	–	–	–	–	–	–	–	–	–	–	–	–	–	–	–	more severe than to hepatoma cells	–
CN1CCN(C(=O)Oc2ccc3c(c2)-c2nc4ccccc4nc2[C@@H]2C(C)(C)CCC[C@]32C)CC1 [pip-QX]	effect similar to AZT-QX	–	–	–	–	–	–	–	–	–	–	–	–	–	–	–	–	–	–	killed all the liver cell lines non-selectively	toxicity to / killing of HepG2 cells (in words) [6]: killed all the liver cell lines non-selectively; toxicity to / killing of Hep3B cells (in words) ([2]; MTT after 72 hours): killed all the liver cell lines non-selectively
